pIC50: −log10 of the molar value.

From ChEMBL document CHEMBL1123675, “2,4-Diamino-5-benzylpyrimidines as antibacterial agents. 7. Analysis of the effect of 3,5-dialkyl substituent size and shape on binding to four different dihydrofolate reductase enzymes” (J Med Chem, 1987) come the findings set out here.

Assay [1] concerns the target Bifunctional dihydrofolate reductase-thymidylate synthase (Plasmodium berghei str. ANKA, UniProt Q27713). Briefly: Inhibitory activity against dihydrofolate reductase (DHFR) of Plasmodium berghei. The following applies: read-out: I50.
For assay [2], the target named is Dihydrofolate reductase (Neisseria gonorrhoeae, UniProt P04174). Briefly: Inhibitory activity against dihydrofolate reductase (DHFR) of Neisseria gonorrhoea. The following applies: read-out: I50.
Dihydrofolate reductase (Neisseria gonorrhoeae, UniProt P04174), sequence (P04174 whole entry): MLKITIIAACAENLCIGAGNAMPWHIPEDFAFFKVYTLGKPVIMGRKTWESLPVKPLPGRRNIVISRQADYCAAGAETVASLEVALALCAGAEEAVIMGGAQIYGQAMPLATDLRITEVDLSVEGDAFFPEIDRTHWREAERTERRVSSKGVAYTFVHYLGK
Assay [3] concerns the target T1, Dihydrofolate reductase (Rattus norvegicus, UniProt Q920D2).
T1 sequence (Q920D2 whole entry): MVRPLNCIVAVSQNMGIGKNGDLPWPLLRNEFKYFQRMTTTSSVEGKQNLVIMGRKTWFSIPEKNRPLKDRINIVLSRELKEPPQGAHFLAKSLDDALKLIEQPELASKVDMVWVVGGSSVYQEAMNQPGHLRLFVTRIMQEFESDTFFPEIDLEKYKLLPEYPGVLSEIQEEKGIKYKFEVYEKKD
In words: Inhibitory activity against dihydrofolate reductase (DHFR) from rat liver. The following applies: read-out: I50.

For assay [4], the target named is T2, Dihydrofolate reductase (Rattus norvegicus) (UniProt Q920D2).
T2 sequence (whole entry): T1 sequence (Q920D2 whole entry)
In words: Inhibitory activity against dihydrofolate reductase (DHFR) of Rat liver at a concentration 2 x 10 E -5 M.

For assay [5], the target named is T2, Dihydrofolate reductase (Rattus norvegicus). Briefly: Inhibitory activity against dihydrofolate reductase (DHFR) of Rat liver at a concentration 10 E -6 M.

Bifunctional dihydrofolate reductase-thymidylate synthase, sequence (Q27713 whole entry): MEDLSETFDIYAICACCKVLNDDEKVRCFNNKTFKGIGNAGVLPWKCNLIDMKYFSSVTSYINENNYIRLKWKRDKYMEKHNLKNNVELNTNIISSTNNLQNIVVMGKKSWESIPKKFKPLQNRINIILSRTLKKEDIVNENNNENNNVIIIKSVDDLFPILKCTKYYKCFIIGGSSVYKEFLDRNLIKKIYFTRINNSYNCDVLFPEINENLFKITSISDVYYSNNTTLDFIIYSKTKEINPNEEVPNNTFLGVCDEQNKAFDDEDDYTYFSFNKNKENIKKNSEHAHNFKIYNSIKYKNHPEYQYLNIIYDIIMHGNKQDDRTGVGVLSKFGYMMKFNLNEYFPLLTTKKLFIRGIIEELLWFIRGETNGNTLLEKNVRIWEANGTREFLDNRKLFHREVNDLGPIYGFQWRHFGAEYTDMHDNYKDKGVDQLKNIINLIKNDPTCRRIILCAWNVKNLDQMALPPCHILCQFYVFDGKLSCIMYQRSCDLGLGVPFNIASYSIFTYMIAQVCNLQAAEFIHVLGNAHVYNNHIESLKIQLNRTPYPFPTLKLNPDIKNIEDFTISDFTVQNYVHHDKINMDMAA

For the molecule `CCCc1cc(Cc2cnc(N)nc2N)cc(CC)c1OC`, the figures for the pIC50 (in assay [1]; on Dihydrofolate reductase [2]; at Dihydrofolate reductase [3]) were 8.00, 7.36 and 4.49, respectively.
Turning to `CCc1cc(Cc2cnc(N)nc2N)cc(C)c1N`, the results for the pIC50 on Dihydrofolate reductase [2] and on Dihydrofolate reductase [3] were 6.25 and 3.84, respectively.
Turning to `Cc1cc(Cc2cnc(N)nc2N)cc(C(C)C)c1N`, the pIC50 on Dihydrofolate reductase [2] was 6.59.
As to `COc1c(C(C)C)cc(Cc2cnc(N)nc2N)cc1C(C)C`, the pIC50 in assay [1] was 7.64; at Dihydrofolate reductase [2], 7.20; on Dihydrofolate reductase [3], 4.89.
`CCCc1cc(Cc2cnc(N)nc2N)cc(CCC)c1OC`: the values for the pIC50 (in assay [1]; at Dihydrofolate reductase [2]; at Dihydrofolate reductase [3]) were 7.70, 7.22 and 4.68, respectively.
Taken in the same sequence, the figures for `Nc1ncc(Cc2cc(I)c(O)c(I)c2)c(N)n1` were 7.28, 7.55 and 5.00.
Taken in the same sequence, the figures for `COc1c(C)cc(Cc2cnc(N)nc2N)cc1C` were 6.92, 6.30 and 3.60.
Taken in the same sequence, the figures for `CCc1cc(Cc2cnc(N)nc2N)cc(C)c1OC` were 6.92, 6.51 and 4.08.
Take `CCCCCCCCCCCCOc1c(CC)cc(Cc2cnc(N)nc2N)cc1CC`: the pIC50 in assay [1] was 6.46; on Dihydrofolate reductase [2], 5.46; on Dihydrofolate reductase [3], 4.19.
Turning to `Nc1ncc(Cc2cc(I)c(OCCCOc3ccccc3)c(I)c2)c(N)n1`, the pIC50 is 7.37 at Dihydrofolate reductase [2] and 5.80 at Dihydrofolate reductase [3].
Regarding `Cc1cc(Cc2cnc(N)nc2N)cc(C(C)(C)C)c1N`, the pIC50 is 6.41 on Dihydrofolate reductase [2] and 3.43 on Dihydrofolate reductase [3].
Take `COc1cc(Cc2cnc(N)nc2N)ccc1N`: at Dihydrofolate reductase [3], the pIC50 is 3.33.
Take `CCCc1cc(Cc2cnc(N)nc2N)cc(CCC)c1O`: the pIC50 in assay [1] was 8.24; on Dihydrofolate reductase [2], 7.70; at Dihydrofolate reductase [3], 5.70.
Take `COc1cc(Cc2cnc(N)nc2N)cc(OC)c1N`: the pIC50 at Dihydrofolate reductase [2] was 6.09; on Dihydrofolate reductase [3] it was 3.28.
For `CCc1cc(Cc2cnc(N)nc2N)cc(C)c1O`, the pIC50 was 6.46 at Dihydrofolate reductase [2] and 4.41 on Dihydrofolate reductase [3].
`CCc1cc(Cc2cnc(N)nc2N)cc(CC)c1O`: the pIC50 was 7.55 in assay [1], 6.92 on Dihydrofolate reductase [2] and 4.80 on Dihydrofolate reductase [3].
Taken in the same sequence, the figures for `CCc1cc(Cc2cnc(N)nc2N)cc(CC)c1OC` were 7.92, 6.81 and 4.24.
Turning to `Cc1cc(Cc2cnc(N)nc2N)cc(C(C)(C)C)c1O`, the pIC50 on Dihydrofolate reductase [2] was 6.59; on Dihydrofolate reductase [3], 3.92.
With `COc1c(I)cc(Cc2cnc(N)nc2N)cc1I`, the pIC50 in assay [1] was 7.51; on Dihydrofolate reductase [2], 7.55; at Dihydrofolate reductase [3], 4.80.
With `Nc1ncc(Cc2cc(Br)c(N)c(Br)c2)c(N)n1`, the pIC50 is 7.03 at Dihydrofolate reductase [2] and 4.24 at Dihydrofolate reductase [3].
In the case of `CCOc1cc(Cc2cnc(N)nc2N)cc(OCC)c1OCC`, the pIC50 is 8.12 in assay [1], 6.66 at Dihydrofolate reductase [2] and 4.52 at Dihydrofolate reductase [3].
The like results for `CCc1cc(Cc2cnc(N)nc2N)cc(CC)c1OCCCOc1ccccc1` were, in that order, 8.00, 7.19 and 5.06.
With `Cc1cc(Cc2cnc(N)nc2N)cc(C)c1N`, the pIC50 was 6.31 at Dihydrofolate reductase [2] and 3.42 on Dihydrofolate reductase [3].
Regarding `CCCCC(CC)COc1c(CC)cc(Cc2cnc(N)nc2N)cc1CC` (centres undefined), the pIC50 is 7.38 in assay [1] and 6.50 on Dihydrofolate reductase [2]. In assay [4], this molecule had an Inhibition of 0%.
Take `Nc1ncc(Cc2cc(Cl)c(N)c(Cl)c2)c(N)n1`: the pIC50 on Dihydrofolate reductase [2] is 6.50; at Dihydrofolate reductase [3] it was 3.89.
For `CCOc1c(CC)cc(Cc2cnc(N)nc2N)cc1CC`, the pIC50 in assay [1] was 7.46; at Dihydrofolate reductase [2] it was 6.45; on Dihydrofolate reductase [3], 4.28.
Taken in the same sequence, the figures for `COc1c(C(C)(C)C)cc(Cc2cnc(N)nc2N)cc1C(C)(C)C` were 7.89, 7.24 and 4.51.
Turning to `CCc1cc(Cc2cnc(N)nc2N)cc(CC)c1N`, the pIC50 on Dihydrofolate reductase [2] was 6.97; at Dihydrofolate reductase [3] it was 4.42.
Taken in the same sequence, the figures for `CCc1cc(Cc2cnc(N)nc2N)cc(C(C)CC)c1N` (centres undefined) were 7.12 and 4.57.
As to `COc1c(C)cc(Cc2cnc(N)nc2N)cc1C(C)(C)C`, the pIC50 in assay [1] was 7.11; at Dihydrofolate reductase [2] it was 6.62; on Dihydrofolate reductase [3], 3.89.
For the molecule `CCc1cc(Cc2cnc(N)nc2N)cc(CC)c1OCCO`, the pIC50 was 7.35 at Dihydrofolate reductase [2] and 3.92 on Dihydrofolate reductase [3].
As to `Cc1cc(Cc2cnc(N)nc2N)cc(Cl)c1N`, the pIC50 at Dihydrofolate reductase [3] is 3.80.
In the case of `CCCCOc1c(CCC)cc(Cc2cnc(N)nc2N)cc1CCC`, the pIC50 in assay [1] was 8.24; at Dihydrofolate reductase [2], 6.88; on Dihydrofolate reductase [3] it was 4.82.
In the case of `CC(C)c1cc(Cc2cnc(N)nc2N)cc(C(C)C)c1N`, the pIC50 at Dihydrofolate reductase [2] was 6.86; at Dihydrofolate reductase [3] it was 4.47.
With `CC(C)(C)c1cc(Cc2cnc(N)nc2N)cc(C(C)(C)C)c1O`, the pIC50 in assay [1] was 6.85; at Dihydrofolate reductase [2], 7.21; at Dihydrofolate reductase [3], 4.46.
Turning to `CCOc1c(C)c(C)c(Cc2cnc(N)nc2N)c(C)c1C`, the Inhibition in assay [5] is 0%.
Regarding `CC(C)c1cc(Cc2cnc(N)nc2N)cc(C(C)C)c1O`, the pIC50 is 6.96 in assay [1], 7.54 at Dihydrofolate reductase [2] and 5.05 on Dihydrofolate reductase [3].
Take `COc1cc(Cc2cnc(N)nc2N)cc(OC)c1O` [4-HYDROXYTRIMETHOPRIM]: the pIC50 on Dihydrofolate reductase [2] is 6.48.
Take `COc1cc(Cc2cnc(N)nc2N)ccc1O`: the pIC50 at Dihydrofolate reductase [3] is 4.46.
With `Cc1cc(Cc2cnc(N)nc2N)cc(C)c1O`, the figures for the pIC50 at Dihydrofolate reductase [2] and on Dihydrofolate reductase [3] were 6.28 and 4.15, respectively.
The like results for `COc1ccc(Cc2cnc(N)nc2N)cc1OC` [DIAVERIDINE] were, in that order, 6.28 and 4.07.
For the molecule `CCCc1cc(Cc2cnc(N)nc2N)cc(CC)c1O`, the pIC50 in assay [1] is 7.82; at Dihydrofolate reductase [2], 7.31; at Dihydrofolate reductase [3] it was 5.35.

In general, Inhibition refers to the share of the control response that was lost under treatment. A low value points to a response near the control.
